Data: US9408387B2, “Safening 6-amino-2-(substituted phenyl)-5-substituted-4-pyrimidinecarboxylate herbicide injury on cereal crops” (Dow AgroSciences LLC, priority 2009, dated 2016)

Key:
Format in all cases: in vivo
[1] = test system: spring wheat (Triticum aestivum L; TRZAS); assay: Postemergence herbicidal safening in cereal crops, greenhouse, visual injury: spring wheat
Experimental: (§1) Evaluation of Postemergence Herbicidal Safening in Cereal Crops
(§2) Seeds of the desired test plant species were planted in Sun Gro MetroMix® 306 planting mixture, which typically has a pH of 6.0 to 6.8 and an organic matter content of about 30 percent, in plastic pots with a surface area of 103.2 square centimeters (cm^2). When required to ensure good germination and healthy plants, a fungicide treatment and/or other chemical or physical treatment was applied. The plants were grown for 7-36 days (d) in a greenhouse with an approximate 14-hour (h) photoperiod which was maintained at about 18° C. during the day and 17° C. during the night. Nutrients and water were added on a regular basis and supplemental lighting was provided with overhead metal halide 1000-Watt lamps as necessary. The plants were employed for testing when they reached the second or third true leaf stage.
(§3) Treatments consisted of the acids or esters of compounds 1-10 and cloquintocet-mexyl (CQC-M), fenchlorazole-ethyl, mefenpyr-diethyl alone and in combination. Weighed amounts of acid or methyl esters of the compounds of formula (I) were dissolved in a volume of 97:3 v/v acetone/dimethylsulfoxide (DMSO) to obtain concentrated solutions. […] The concentrated solutions of the test compound were diluted with the addition of an aqueous mixture containing acetone, water, isopropyl alcohol, DMSO, Agri-Dex crop oil concentrate, and Triton® X-77 surfactant in a 64.7:26.0:6.7:2.0:0.7:0.01 v/v ratio. Test compounds were diluted to the appropriate application rate with a dilution solution which was prepared by mixing the appropriate volume of 97:3 v/v acetone/DMSO and the appropriate volume of an aqueous mixture containing acetone, water, isopropyl alcohol, DMSO, Agri-Dex crop oil concentrate, and Triton® X-77 surfactant in a 64.7:26.0:6.7:2.0:0.7:0.01 v/v ratio. Compound requirements are based upon a 12 mL application volume at a rate of 187 liters per hectare (L/ha). The concentrated solutions of the safener were prepared following the same procedure. Weighed amounts of safener were dissolved in a volume of 97:3 v/v acetone/DMSO to obtain concentrated safener solutions.
(§4) Spray solutions of the herbicide safener and test compound mixtures were prepared by adding the concentrated solutions to the appropriate amount of dilution solution to form 12 mL spray solution with active ingredients in combinations.
(§5) Formulated compounds were applied to the plant material with an overhead Mandel track sprayer equipped with 8002E nozzles calibrated to deliver 187 L/ha over an application area of 0.503 square meters (m^2) at a spray height of 18 inches (43 centimeters (cm)) above average plant canopy. Control plants were sprayed in the same manner with the solvent blank.
(§6) The treated plants and control plants were placed in a greenhouse as described above and watered by sub-irrigation to prevent wash-off of the test compounds. After 20-22 d, the condition of the test plants as compared with that of the control plants was determined visually and scored on a scale of 0 to 100 percent where 0 corresponds to no injury and 100 corresponds to complete kill.
(§7) Colby's equation was used to determine the herbicidal effects expected from the mixtures (Colby, S. R. Calculation of the synergistic and antagonistic response of herbicide combinations. Weeds 1967, 15, 20-22.).
(§8) The following equation was used to calculate the expected activity of mixtures containing two active ingredients, A and B: Expected=A+B−(A×B/100)
(§9) A=observed efficacy of active ingredient A at the same concentration as used in the mixture.
(§10) B=observed efficacy of active ingredient B at the same concentration as used in the mixture.

[2] = test system: spring barley (Hordeum vulgare L; HORVS); assay: Postemergence herbicidal safening in cereal crops, greenhouse, visual injury: spring barley
Experimental: as §1, §2, §3, §4, §5, §6, §7, §8, §9, §10

[3] = test system: winter wheat (Triticum aestivum L; TRZAW); assay: Postemergence herbicidal safening in cereal crops, greenhouse, visual injury: winter wheat; conditions: 20-22 d
Experimental: as §1, §2, §3, §4, §5, §6, §7, §8, §9, §10

[4] = test system: winter barley (Hordeum vulgare L; HORVW); assay: Postemergence herbicidal safening in cereal crops, greenhouse, visual injury: winter barley; conditions: 20-22 d
Experimental: as §1, §2, §3, §4, §5, §6, §7, §8, §9, §10

[5] = test system: AMARE; assay: Postemergence herbicidal activity, greenhouse, visual injury: AMARE; conditions: 20-22 d
Experimental: as §1, §2, §3, §4, §5, §6, §7
(§11) The following equation was used to calculate the expected activity of mixtures containing two active ingredients, A and B: Expected=A+B−(A×B/100) […]

[6] = test system: GALAP; assay: Postemergence herbicidal activity, greenhouse, visual injury: GALAP; conditions: 20-22 d
Experimental: as §1, §2, §3, §4, §5, §6, §7, §11

[7] = test system: purple deadnettle (Lamium purpureum L; LAMPU); assay: Postemergence herbicidal activity, greenhouse, visual injury: purple deadnettle
Experimental: as §1, §2, §3, §4, §5, §6, §7, §8, §9, §10

[8] = test system: bird's-eye speedwell (Veronica persica L; VERPE); assay: Postemergence herbicidal activity, greenhouse, visual injury: bird's-eye speedwell
Experimental: as §1, §2, §3, §4, §5, §6, §7, §8, §9, §10

[9] = test system: SASKR; assay: Postemergence herbicidal activity, greenhouse, visual injury: SASKR; conditions: for SASKR Ob (visual injury): 20-22 d
Experimental: as §1, §2, §3, §4, §5, §6, §7, §8, §9, §10

[10] = test system: MATCH; assay: Postemergence herbicidal activity, greenhouse, visual injury: MATCH; conditions: for MATCH Ob (visual injury): 20-22 d
Experimental: as §1, §2, §3, §4, §5, §6, §7, §8, §9, §10

[11] = test system: wild mustard (Sinapis arvensis L.; SINAR); assay: Postemergence herbicidal activity, greenhouse, visual injury: SINAR
[12] = Compound 10 0, CQC-M 8.75 g ae/ha
[13] = Compound 10 0, CQC-M 17.5 g ae/ha
[14] = Compound 10 0, CQC-M 35 g ae/ha
[15] = Compound 10 0, CQC-M 70 g ae/ha
[16] = Compound 10 0, CQC-M 140 g ae/ha

CCCCCC(C)OC(=O)COc1ccc(Cl)c2cccnc12 (stereo not drawn) [CQC-M, cloquintocet-mexyl, reference compound]
0%: pest or weed control at 0.547 g/ha ([1]; Triticum aestivum, post-emergence, 480 h, safener alone 0.547 g/ha, 20-22 d, read-out: TRZAS Ob (visual injury)) | pest or weed control at 2.1875 g/ha ([1]; Triticum aestivum, post-emergence, 480 h, safener alone 2.1875 g/ha, 20-22 d, read-out: TRZAS Ob (visual injury)) | pest or weed control at 8.75 g/ha ([1]; Triticum aestivum, post-emergence, 480 h, safener alone 8.75 g/ha, 20-22 d, read-out: TRZAS Ob (visual injury)) | pest or weed control at 35 g/ha ([1]; Triticum aestivum, post-emergence, 480 h, safener alone 35 g/ha, 20-22 d, read-out: TRZAS Ob (visual injury)) | pest or weed control at 140 g/ha ([1]; Triticum aestivum, post-emergence, 480 h, safener alone 140 g/ha, 20-22 d, read-out: TRZAS Ob (visual injury)) | TRZAS Ob (Observed values, % control) ([1]; in vivo) | pest or weed control at 0.547 g/ha ([2]; Hordeum vulgare, post-emergence, 480 h, safener alone 0.547 g/ha, 20-22 d, read-out: HORVS Ob (visual injury)) | pest or weed control at 2.1875 g/ha ([2]; Hordeum vulgare, post-emergence, 480 h, safener alone 2.1875 g/ha, 20-22 d, read-out: HORVS Ob (visual injury)) | pest or weed control at 8.75 g/ha ([2]; Hordeum vulgare, post-emergence, 480 h, safener alone 8.75 g/ha, 20-22 d, read-out: HORVS Ob (visual injury)) | HORVS Ob (Observed values, % control) ([2]; in vivo) | TRZAW Ob (visual injury) ([3]; safener alone 0.547 g/ha) | TRZAW Ob (visual injury) ([3]; safener alone 2.1875 g/ha) | TRZAW Ob (visual injury) ([3]; safener alone 8.75 g/ha) | TRZAW Ob (visual injury) ([3]; safener alone 35 g/ha) | TRZAW Ob (visual injury) ([3]; safener alone 70 g/ha) | TRZAW Ob (visual injury) ([3]; safener alone 140 g/ha) | HORVW Ob (visual injury) ([4]; safener alone 0.547 g/ha) | HORVW Ob (visual injury) ([4]; safener alone 2.1875 g/ha) | HORVW Ob (visual injury) ([4]; safener alone 8.75 g/ha) | HORVW Ob (visual injury) ([4]; safener alone 35 g/ha) | HORVW Ob (visual injury) ([4]; safener alone 70 g/ha) | HORVW Ob (visual injury) ([4]; safener alone 140 g/ha) | AMARE Ob (visual injury) ([5]; safener alone 35 g/ha) | AMARE Ob (visual injury) ([5]; safener alone 70 g/ha) | AMARE Ob (visual injury) ([5]; safener alone 140 g/ha) | GALAP Ob (visual injury) ([6]; safener alone 35 g/ha) | GALAP Ob (visual injury) ([6]; safener alone 70 g/ha) | GALAP Ob (visual injury) ([6]; safener alone 140 g/ha) | LAMPU Ob (Observed values, % control) [7, 12] | LAMPU Ob (Observed values, % control) [7, 13] | LAMPU Ob (Observed values, % control) [7, 14] | LAMPU Ob (Observed values, % control) [7, 15] | LAMPU Ob (Observed values, % control) [7, 16] | pest or weed control at 35 g/ha ([7]; Lamium purpureum, post-emergence, 480 h, safener alone 35 g/ha, 20-22 d, read-out: LAMPU Ob (visual injury)) | pest or weed control at 140 g/ha ([7]; Lamium purpureum, post-emergence, 480 h, safener alone 140 g/ha, 20-22 d, read-out: LAMPU Ob (visual injury)) | VERPE Ob (Observed values, % control) [8, 12] | VERPE Ob (Observed values, % control) [8, 13] | VERPE Ob (Observed values, % control) [8, 14] | VERPE Ob (Observed values, % control) [8, 15] | VERPE Ob (Observed values, % control) [8, 16] | VERPE Ob (visual injury) ([8]; safener alone 8.75 g/ha, 20-22 d) | SASKR Ob (Observed values, % control) [9, 12] | SASKR Ob (Observed values, % control) [9, 13] | SASKR Ob (Observed values, % control) [9, 14] | SASKR Ob (Observed values, % control) [9, 15] | SASKR Ob (Observed values, % control) [9, 16] | SASKR Ob (visual injury) ([9]; safener alone 70 g/ha) | SASKR Ob (visual injury) ([9]; safener alone 140 g/ha) | MATCH Ob (Observed values, % control) [10, 12] | MATCH Ob (Observed values, % control) [10, 13] | MATCH Ob (Observed values, % control) [10, 14] | MATCH Ob (Observed values, % control) [10, 15] | MATCH Ob (Observed values, % control) [10, 16] | MATCH Ob (visual injury) ([10]; safener alone 70 g/ha) | MATCH Ob (visual injury) ([10]; safener alone 140 g/ha) | SINAR Ob (Observed values, % control) [11, 12] | SINAR Ob (Observed values, % control) [11, 13] | SINAR Ob (Observed values, % control) [11, 14] | SINAR Ob (Observed values, % control) [11, 15] | SINAR Ob (Observed values, % control) [11, 16]
